ChEMBL document CHEMBL5543137, “Design and Synthesis of Novel Ultralong-Acting Peptides as EDP-EBP Interaction Inhibitors for Pulmonary Fibrosis Treatment” (J Med Chem, 2024)
Calls of active or inactive are those of the source. The rule behind the calls is not given here. Starred links: 1 amine or outer side, 2 acyl side, 3 side chain; linkers in the order of their positions; H or OH if unused. Non-standard residues stand in square brackets, D forms with d. Residues, ends and D or L forms follow the SMILES beside them. *: point of attachment. C20 diacid = O=C(O)CCCCCCCCCCCCCCCCCCC(=O)*; γGlu = O=C(O)[C@H](CCC(=O)[*:2])N[*:1]; Iva = CC[C@](C)(N)C(=O)O; PEG2 = NCCOCCOCCC(=O)O

Key:
[1] = test system: Mus musculus; assay: Antifibrotic activity against BLM-induced C57BL/6 mouse pulmonary fibrosis model assessed as reduction in MMP-12 expression at 240 ug/kg/day, sc administered for 2 weeks starting from 7 days post BLM induction and measured after 21 days post BLM induction in presence of Clo-Lip; assay type: functional, organism-based; settings: dose 240.0 µg/kg/day
[2] = test system: A549; assay: Antifibrotic activity against BLM-induced human A549 cells cocultured with RAW264.7 cells assessed as reduction in Vimentin expression at 10 uM after 24 hrs by Western blotting analysis; assay type: functional, cell-based
[3] = test system: Mus musculus; assay: Antifibrotic activity against BLM-induced C57BL/6 mouse pulmonary fibrosis model assessed as inhibition of activated fibroblast signature at 240 ug/kg/day, sc administered for 2 weeks starting from 7 days post BLM induction and measured after 21 days post BLM induction by gene enrichment analysis; assay type: functional, organism-based; settings: dose 240.0 µg/kg/day
[4] = test system: A549; assay: Inhibition of EBP signaling pathway in TGFalpha induced human A549 cells assessed as reduction in PI3K phosphorylation at 10 uM incubated for 24 hrs by Western blotting analysis; assay type: cell-based
[5] = test system: Mus musculus; assay: Antifibrotic activity against BLM-induced C57BL/6 mouse pulmonary fibrosis model assessed as reduction in Ctgf gene expression at 240 ug/kg/day, sc administered for 2 weeks starting from 7 days post BLM induction and measured after 21 days post BLM induction by ScRNA-sequencing analysis; assay type: functional, organism-based; settings: dose 240.0 µg/kg/day
[6] = test system: A549; assay: Antifibrotic activity against TNFalpha-induced human A549 cells assessed as downregulation of Fn expression level at 10 uM incubated for 24 hrs by Western blotting analysis; assay type: functional, cell-based
[7] = test system: A549; assay: Antifibrotic activity against TNFalpha-induced human A549 cells assessed as downregulation of Tgfb1 gene expression level at 10 uM incubated for 24 hrs by RT-qPCR analysis; assay type: functional, cell-based
[8] = test system: Mus musculus; assay: Antifibrotic activity against BLM-induced C57BL/6 mouse pulmonary fibrosis model assessed as reduction in Vimentin expression at 240 ug/kg/day, sc administered for 2 weeks starting from 7 days post BLM induction and measured after 21 days post BLM induction in presence of GM6001; assay type: functional, organism-based; settings: dose 240.0 µg/kg/day
[9] = test system: Mus musculus; assay: Antifibrotic activity against BLM-induced C57BL/6 mouse pulmonary fibrosis model assessed as reduction in Des gene expression at 240 ug/kg/day, sc administered for 2 weeks starting from 7 days post BLM induction and measured after 21 days post BLM induction by ScRNA-sequencing analysis; assay type: functional, organism-based; settings: dose 240.0 µg/kg/day
[10] = test system: A549; assay: Antifibrotic activity against BLM-induced human A549 cells assessed as reduction in FN expression at 10 uM after 24 hrs by Western blotting analysis; assay type: functional, cell-based
[11] = test system: Mus musculus; assay: Antifibrotic activity against BLM-induced C57BL/6 mouse pulmonary fibrosis model assessed as reduction in Eln gene expression at 240 ug/kg/day, sc administered for 2 weeks starting from 7 days post BLM induction and measured after 21 days post BLM induction by ScRNA-sequencing analysis; assay type: functional, organism-based; settings: dose 240.0 µg/kg/day
[12] = test system: Mus musculus; assay: Antifibrotic activity against BLM-induced C57BL/6 mouse pulmonary fibrosis model assessed as reduction in lung hydroxyproline content at 150 ug/kg, sc administered for 2 weeks starting from 7 days post BLM induction and measured after 21 days post BLM induction; assay type: functional, organism-based; settings: dose 150.0 µg/kg
[13] = test system: Mus musculus; assay: Antifibrotic activity against BLM-induced C57BL/6 mouse pulmonary fibrosis model assessed as reduction in vimentin gene expression at 240 ug/kg/day, sc administered for 2 weeks starting from 7 days post BLM induction and measured after 21 days post BLM induction by ScRNA-sequencing analysis; assay type: functional, organism-based; settings: dose 240.0 µg/kg/day
[14] = test system: Mus musculus; assay: Antifibrotic activity against BLM-induced C57BL/6 mouse pulmonary fibrosis model assessed as improvement in lung condition at 30 to 240 ug/kg, sc administered for 2 weeks starting from 7 days post BLM induction and measured after 21 days post BLM induction; assay type: functional, organism-based; settings: dose 30-240 µg/kg
[15] = test system: Mus musculus; assay: Antifibrotic activity against BLM-induced C57BL/6 mouse pulmonary fibrosis model assessed as reduction in alpha-SMA expression at 240 ug/kg/day, sc administered for 2 weeks starting from 7 days post BLM induction and measured after 21 days post BLM induction in presence of Clo-Lip; assay type: functional, organism-based; settings: dose 240.0 µg/kg/day
[16] = test system: Mus musculus; assay: Antifibrotic activity against BLM-induced C57BL/6 mouse pulmonary fibrosis model assessed as reduction in ECM deposition in lungs at 30 to 240 ug/kg, sc administered for 2 weeks starting from 7 days post BLM induction and measured after 21 days post BLM induction; assay type: functional, organism-based; settings: dose 30-240 µg/kg
[17] = test system: Mus musculus; assay: Antifibrotic activity against BLM-induced C57BL/6 mouse pulmonary fibrosis model assessed as reduction in Timp1 gene expression at 240 ug/kg/day, sc administered for 2 weeks starting from 7 days post BLM induction and measured after 21 days post BLM induction by ScRNA-sequencing analysis; assay type: functional, organism-based; settings: dose 240.0 µg/kg/day
[18] = test system: Mus musculus; assay: Antifibrotic activity against BLM-induced C57BL/6 mouse pulmonary fibrosis model assessed as reduction in Thbs gene expression at 240 ug/kg/day, sc administered for 2 weeks starting from 7 days post BLM induction and measured after 21 days post BLM induction by ScRNA-sequencing analysis; assay type: functional, organism-based; settings: dose 240.0 µg/kg/day
[19] = test system: Mus musculus; assay: Antifibrotic activity against BLM-induced C57BL/6 mouse pulmonary fibrosis model assessed as reduction in Adamts2 gene expression at 240 ug/kg/day, sc administered for 2 weeks starting from 7 days post BLM induction and measured after 21 days post BLM induction by ScRNA-sequencing analysis; assay type: functional, organism-based; settings: dose 240.0 µg/kg/day
[20] = test system: RAW264.7; assay: Antifibrotic activity against BLM-induced mouse RAW264.7 cells assessed as upregulation of MMP-12 protein expression at 10 uM incubated for 6 to 24 hrs by Western blotting analysis; assay type: functional, cell-based; settings: time 6-24 hrs
[21] = test system: Mus musculus; assay: Antifibrotic activity against BLM-induced C57BL/6 mouse pulmonary fibrosis model assessed as reversal of body weight loss at 150 ug/kg, sc administered for 2 weeks starting from 7 days post BLM induction and measured after 21 days post BLM induction; assay type: functional, organism-based; settings: dose 150.0 µg/kg
[22] = test system: RAW264.7; assay: Upregulation of MMP-12 expression in mouse RAW264.7 cells at 10 uM incubated for 6 to 24 hrs; assay type: functional, cell-based; settings: time 6-24 hrs
[23] = test system: Mus musculus; assay: Antifibrotic activity against BLM-induced C57BL/6 mouse pulmonary fibrosis model assessed as reduction in lung inflammation at 150 ug/kg, sc administered for 2 weeks starting from 7 days post BLM induction and measured after 21 days post BLM induction by immunohistochemical staining based assay; assay type: functional, organism-based; settings: dose 150.0 µg/kg
[24] = test system: Mus musculus; assay: Antifibrotic activity against BLM-induced C57BL/6 mouse pulmonary fibrosis model assessed as reduction in FN expression at 240 ug/kg/day, sc administered for 2 weeks starting from 7 days post BLM induction and measured after 21 days post BLM induction in presence of Clo-Lip; assay type: functional, organism-based; settings: dose 240.0 µg/kg/day
[25] = test system: Mus musculus; assay: Antifibrotic activity against BLM-induced sc dosed C57BL/6 mouse pulmonary fibrosis model assessed as reversal of lung indices administered for 2 weeks starting from 7 days post BLM induction and measured after 21 days post BLM induction; assay type: functional, organism-based; settings: dose 30-240 µg/kg
[26] = test system: Mus musculus; assay: Antifibrotic activity against BLM-induced C57BL/6 mouse pulmonary fibrosis model assessed as downregulation of IL-6 gene expression in lung tissue at 150 ug/kg, sc administered for 2 weeks starting from 7 days post BLM induction and measured after 21 days post BLM induction by RT-qPCR assay; assay type: functional, organism-based; settings: dose 150.0 µg/kg
[27] = test system: Mus musculus; assay: Antifibrotic activity against BLM-induced C57BL/6 mouse pulmonary fibrosis model assessed as downregulation of Acta2 gene expression in lung tissue at 150 ug/kg, sc administered for 2 weeks starting from 7 days post BLM induction and measured after 21 days post BLM induction by RT-qPCR assay; assay type: functional, organism-based; settings: dose 150.0 µg/kg

CC[C@](C)(NC(=O)[C@@H](NC(=O)CCOCCOCCNC(=O)CCOCCOCCNC(=O)CC[C@H](NC(=O)CCCCCCCCCCCCCCCCCCC(=O)O)C(=O)O)C(C)C)C(=O)NCC(=O)N[C@@H](CO)C(=O)N1CCC[C@H]1C(=O)N[C@@H](CO)C(=O)N[C@@H](C)C(=O)N[C@@H](CCC(N)=O)C(=O)N[C@@H](CCC(=O)O)C(=O)N[C@@H](CCC(=O)O)C(=O)N[C@@H](C)C(=O)N[C@@H](CO)C(=O)N1CCC[C@H]1C(=O)N[C@@H](C)C(N)=O ({C20 diacid-γGlu-PEG2-PEG2}-V[Iva]GSPSAQEEASPA-NH2)
Activity [1]: inactive
Activity [2]: Active
Activity [3]: Active
inhibition [4]: Active
Activity [5]: Active
Activity [6]: Active
Activity [7]: Active
Activity [8]: inactive
Activity [9]: Active
Activity [10]: Active
Activity [11]: Active
Activity [12]: Active
Activity [13]: Active
Activity [14]: Active
Activity [15]: inactive
Activity [16]: Active
Activity [17]: Active
Activity [18]: Active
Activity [19]: Active
Activity [20]: Active
Activity [21]: Active
Activity [22]: inactive
Activity [23]: Active
Activity [24]: inactive
Activity [25]: Dose-Dependent Effect
Activity [26]: Active
Activity [27]: Active
